The record followed here is US7964531B2, “3-phenoxy-4-pyridazinol derivatives and herbicidal composition containing the same” (Mitsui Chemicals Agro, Inc., priority 2001, dated 2011).

Usually melting point stands for the temperature, or range, at which the solid turns liquid.

Structures are written as SMILES.

`CC(C)(C)c1cccc(Br)c1Oc1nnc(Cl)cc1O` [Compound No. 761, 3-(2-Bromo-6-tert-butylphenoxy)-6-chloro-4-pyridazinol] had a melting point of 240 to 247 °C.

Compound `Cc1cccc(C2CC2)c1Oc1nnc(Cl)cc1OC(=O)C(C)(C)CCl` [Compound No. 2703, 6-Chloro-3-(2-cyclopropyl-6-methylphenoxy)-4-pyridazinyl 3-chloro-2,2-dimethylpropanoate] showed a melting point of 112 to 115 °C.

The compound `Oc1cc(Cl)nnc1Oc1cccc2ccccc12` [Compound No. 527, 6-Chloro-3-(1-naphthyloxy)-4-pyridazinol] yielded a melting point of 243 to 245 °C.

As for `CC1CC1c1ccccc1Oc1nnc(Cl)cc1O` (stereo not shown) [Compound No. 217, 6-Chloro-3-[2-(2-methylcyclopropyl)phenoxy]-4-pyridazinol], the melting point fell in the range of 192 to 208 °C.

In turn, `Oc1cc(Cl)nnc1Oc1ccccc1C1CC1(Cl)Cl` (stereo not shown) [Compound No. 265, 6-Chloro-3-[2-(2,2-dichlorocyclopropyl)phenoxy]-4-pyridazinol] showed a melting point of 158 to 163 °C.

In the case of `COc1ccc(C2CC2)c(Oc2nnc(Cl)cc2O)c1C` [Compound No. 1069, 6-Chloro-3-(6-cyclopropyl-3-methoxy-2-methylphenoxy)-4-pyridazinol], the melting point fell in the range of 250 to 253 °C.

Regarding `CC=Cc1ccc(Cl)cc1Oc1nnc(Cl)cc1O` [Compound No. 680, 6-Chloro-3-[5-chloro-2-(1-propenyl)phenoxy]-4-pyridazinol], the melting point lay in the range of 221 to 224 °C.

Compound `Oc1cc(Cl)nnc1Oc1cccc(C(F)(F)F)c1Cl` [Compound No. 446, 6-Chloro-3-[2-chloro-3-(trifluoromethyl)phenoxy]-4-pyridazinol] came in with a melting point of 170 to 200 °C.

Compound `O=[N+]([O-])c1cccc(Oc2nnc(Cl)cc2O)c1` [Compound No. 424, 6-Chloro-3-(3-nitrophenoxy)-4-pyridazinol] had a melting point of 217 to 219 °C.

In turn, `Cc1cc(C)c(Cl)c(Oc2nnc(Cl)cc2O)c1C` [Compound No. 2599, 6-Chloro-3-(2-chloro-3,5,6-trimethylphenoxy)-4-pyridazinol] showed a melting point of 298 to 300 °C.

Compound `COc1ccc(Oc2nnc(Cl)cc2O)cc1` [Compound No. 435, 6-Chloro-3-(4-methoxyphenoxy)-4-pyridazinol] displayed a melting point of 260 to 263.5 °C.

Compound `Oc1cc(Cl)nnc1Oc1ccccc1C1CC1` [Compound No. 139, 6-Chloro-3-(2-cyclopropylphenoxy)-4-pyridazinol] had a melting point of 229 to 231 °C.

Regarding `Oc1cc(Cl)nnc1Oc1cccc(C(F)(F)F)c1` [Compound No. 418, 6-Chloro-3-[3-(trifluoromethyl)phenoxy]-4-pyridazinol], the melting point fell in the range of 213 to 216 °C.

In turn, `CC(C)(C)c1ccccc1Oc1nnc(Cl)cc1O` [Compound No. 136, 3-(2-tert-Butylphenoxy)-6-chloro-4-pyridazinol] yielded a melting point of 215 to 216 °C.

Compound `Cc1cc(Br)c(C)c(Br)c1Oc1nnc(Cl)cc1O` [Compound No. 1118, 6-Chloro-3-(2,4-dibromo-3,6-dimethylphenoxy)-4-pyridazinol] showed a melting point of 241 to 248 °C.

For `Cc1cc(C)c(Br)c(Oc2nnc(Cl)cc2O)c1` [Compound No. 1013, 3-(2-Bromo-3,5-dimethylphenoxy)-6-chloro-4-pyridazinol], the melting point was in the range of 240 to 244 °C.

For `CC(C)Cc1ccccc1Oc1nnc(Cl)cc1O` [Compound No. 134, 6-Chloro-3-(2-isobutylphenoxy)-4-pyridazinol], the melting point fell in the range of 151.5 to 152.5 °C.

`Cc1ccc(S(=O)(=O)Oc2cc(Cl)nnc2Oc2ccccc2C)cc1` [Compound No. 2220, 6-Chloro-3-(2-methylphenoxy)-4-pyridazinyl 4-methylbenzenesulfonate]: the melting point lay in the range of 102 to 104 °C.

The compound `Oc1cc(Cl)nnc1Oc1ccccc1C1(C2CC2)CC1` [Compound No. 151, 6-Chloro-3-{2-[1-(cyclopropyl)cyclopropyl]phenoxy}-4-pyridazinol] had a melting point of 180 to 182 °C.

`C=C(C)Cc1cccc(Cl)c1Oc1nnc(Cl)cc1O` [Compound No. 746, 6-Chloro-3-[2-chloro-6-(2-methyl-2-propenyl)phenoxy]-4-pyridazinol] yielded a melting point of 198 to 200 °C.

In turn, `Cc1cccc(C)c1Oc1nnc(Cl)cc1O` [Compound No. 801, 6-Chloro-3-(2,6-dimethylphenoxy)-4-pyridazinol] returned a melting point of 214 to 215 °C.

Consider `C[Si](C)(C)c1c(Cl)nnc(Oc2ccccc2)c1O`, for which the melting point was in the range of 119 to 120 °C.

For `Cc1cccc(C2CC2)c1Oc1nnc(Cl)cc1C(=O)[O-].[K+]`, the melting point was 187 to 189 °C.

In the case of `CCCc1cccc(F)c1Oc1nnc(Cl)cc1O` [Compound No. 716, 6-Chloro-3-(2-fluoro-6-propylphenoxy)-4-pyridazinol], the melting point lay in the range of 134 to 137 °C.

With `CCc1cccc(Cl)c1Oc1nnc(Cl)cc1O` [Compound No. 737, 6-Chloro-3-(2-chloro-6-ethylphenoxy)-4-pyridazinol], the melting point was 194 to 195 °C.

Consider `Cc1cccc(C2CC2)c1Oc1nnc(Cl)cc1OC(=O)n1c(C)ccc1C` [Compound No. 3630, 6-Chloro-3-(2-cyclopropyl-6-methylphenoxy)-4-pyridazinyl 2,5-dimethyl-1H-pyrrole-1-carboxylate], for which the melting point lay within 208 to 210 °C.

`Cc1cc(C)c(Oc2nnc(Cl)cc2O)c(C)c1` [Compound No. 1122, 6-Chloro-3-(2,4,6-trimethylphenoxy)-4-pyridazinol] had a melting point of 235 to 239 °C.

In turn, `Cn1ccc2cccc(Oc3nnc(Cl)cc3O)c21` [Compound No. 2568, 6-Chloro-3-[(1-methyl-1H-indol-7-yl)oxy]-4-pyridazinol] yielded a melting point of 219 to 221 °C.

`CCCS(=O)(=O)Oc1cc(Cl)nnc1Oc1ccccc1C` [Compound No. 2038, 6-Chloro-3-(2-methylphenoxy)-4-pyridazinyl 1-propanesulfonate] registered a melting point of 72 to 73 °C.

As for `COc1ccccc1Oc1nnc(Cl)cc1O` [Compound No. 385, 6-Chloro-3-(2-methoxyphenoxy)-4-pyridazinol], the melting point fell in the range of 191 to 194 °C.

For `Oc1cc(Cl)nnc1Oc1ccccc1C1CCCCC1` [Compound No. 293, 6-Chloro-3-(2-cyclohexylphenoxy)-4-pyridazinol], the melting point lay in the range of 158 to 159 °C.

Regarding `Cc1ccccc1Oc1nnc(-c2cccs2)cc1O` [Compound No. 2478, 3-(2-Methylphenoxy)-6-(2-thienyl)-4-pyridazinol], the melting point was in the range of 86 to 87 °C.

The compound `Cc1ccc(Cl)cc1Oc1nnc(Cl)cc1O` [Compound No. 618, 6-Chloro-3-(5-chloro-2-methylphenoxy)-4-pyridazinol] displayed a melting point of 174 to 180 °C.

`COc1cccc(Oc2nnc(Cl)cc2O)c1C` [Compound No. 459, 6-Chloro-3-(3-methoxy-2-methylphenoxy)-4-pyridazinol]: the melting point lay within 224 to 237 °C.

`Cc1ccc(S(=O)(=O)Oc2cc(Cl)nnc2Oc2c(C)cccc2C)cc1` [Compound No. 2263, 6-Chloro-3-(2,6-dimethylphenoxy)-4-pyridazinyl 4-methylbenzenesulfonate] gave a melting point of 89 to 90 °C.

In the case of `Oc1cc(Cl)nnc1Oc1ccccc1C1CC1(Br)Br` (stereo not shown) [Compound No. 266, 6-Chloro-3-[2-(2,2-dibromocyclopropyl)phenoxy]-4-pyridazinol], the melting point was 208 to 210 °C (dec.).

Compound `CCc1cccc(Br)c1Oc1nnc(Cl)cc1O` [Compound No. 759, 3-(2-Bromo-6-ethylphenoxy)-6-chloro-4-pyridazinol] had a melting point of 215 to 217 °C.

`Cc1ccccc1C(=O)Oc1cc(Cl)nnc1Oc1cccc2ccccc12` [Compound No. 1461, 6-Chloro-3-(1-naphthyloxy)-4-pyridazinyl 2-methylbenzoate] showed a melting point of 133 to 134 °C.

Take `Cc1cccc(C2CC2)c1Oc1nnc(Cl)cc1OS(=O)(=O)c1ccccc1` [Compound No. 2176, 6-Chloro-3-(2-cyclopropyl-6-methylphenoxy)-4-pyridazinyl benzenesulfonate]: the melting point lay in the range of 105 to 106 °C.

`COc1cccc(F)c1Oc1nnc(Cl)cc1O` [Compound No. 732, 6-Chloro-3-(2-fluoro-6-methoxyphenoxy)-4-pyridazinol] showed a melting point of 190 to 194 °C.

On to `CCc1ccc2c(c1Oc1nnc(Cl)cc1O)CCC2` [Compound No. 1089, 6-Chloro-3-[(5-ethyl-2,3-dihydro-1H-inden-4-yl)oxy]-4-pyridazinol], for which the melting point fell in the range of 193 to 196 °C.

Compound `Cc1cccc(Oc2nnc(Cl)cc2O)c1` [Compound No. 413, 6-Chloro-3-(3-methylphenoxy)-4-pyridazinol] showed a melting point of 205 to 208 °C.

In turn, `Oc1cc(Cl)nnc1Oc1c(C2CC2)ccc2c1CCC2` [Compound No. 1091, 6-Chloro-3-[(5-cyclopropyl-2,3-dihydro-1H-inden-4-yl)oxy]-4-pyridazinol] had a melting point of 218 to 220 °C.

With `Cc1cccc(C2CC2)c1Oc1nnc(Cl)cc1OC(=O)N(C)c1ccccn1`, the melting point was in the range of 140 to 147 °C.

In the case of `CS(=O)(=O)Oc1cc(Cl)nnc1Oc1ccccc1C1CC1` [Compound No. 1985, 6-Chloro-3-(2-cyclopropylphenoxy)-4-pyridazinyl methanesulfonate], the melting point fell in the range of 162 to 172 °C.

On to `Oc1cc(Cl)nnc1Oc1ccccc1-c1nc2ccccc2o1` [Compound No. 375, 3-[2-(1,3-Benzoxazol-2-yl)phenoxy]-6-chloro-4-pyridazinol], for which the melting point was in the range of 165 to 167 °C.

Consider `Cc1cccc(C2CC2)c1Oc1nnc(Cl)cc1OC(=O)N(C)C(C)(C)C`, for which the melting point fell in the range of 113 to 115 °C.

In the case of `Cc1cccc(I)c1Oc1nnc(Cl)cc1O` [Compound No. 780, 6-Chloro-3-(2-iodo-6-methylphenoxy)-4-pyridazinol], the melting point lay in the range of 250 to 252 °C.

For the compound `Oc1cc(Cl)nnc1Oc1cc(Cl)ccc1C1CC1` [Compound No. 659, 6-Chloro-3-(5-chloro-2-cyclopropylphenoxy)-4-pyridazinol], the melting point is 194 to 195 °C.
